Tests used:
[1] = system: primary cardiac cells from neonatal mice; assay: Cytotoxicity test, CCK-8 assay; type: cell-based; details: 24 hours
From the text: The toxicity of the novel compound, brominated 9-O-propyl berberine thiazole formate, on the primary cardiac cells from neonatal mice was detected using CCK-8 assay. The CCK-8 agent contains WST-8, which has the chemical name: 2-(2-methoxy-4-nitrophenyl)-3-(4-nitrophenyl)-5-(2,4-disulfophenyl)-2H-tetrazolium sodium salt. It can be reduced to yellow formazan with high water solubility by the dehydrogenase existing in the mitochondrion in a cell in the presence of electron carrier 1-methoxy-5-methylphenazinium methyl sulfate (1-Methoxy PMS). The amount of formazan generated is proportional to the number of live cells. The absorbance is detected at a wavelength of 450 nm by an enzyme-linked immunosorbent assay, which represents the number of live cells, in which a larger value indicates a higher cell activity. […]
After digestion, the primary cardiac cells from neonatal mice were re-suspended into a 96-well plate at a appropriate concentration with volume of 100 μl for each well. […] After incubation at 37° C. for 1-4 hours, the mixture was placed in a micro-plate reader and shaken for 10 s. The absorbance at 450 nm (OD450) was recorded.
The relative inhibition rate of the compound at various concentrations on the primary cardiac cells from neonatal mice was calculated based on the equation: cell inhibition rate (%)=(1−OD450 of the sample group/OD450 of the control group)*100. […]

[2] = system: primary cardiac cells from neonatal mice after H2O2 treatment; assay: SOD in H2O2-injured primary cardiac cells (WST-1 assay); type: cell-based
Procedure: Dismutation of superoxide anion can be catalyzed by superoxide dismutase (SOD) to give hydrogen peroxide and oxygen. SOD is a kind of important antioxidases in organisms. SOD plays a vital role in the equilibrium between oxidation and anti-oxidation in organisms. SOD is able to scavenge superoxide anion free radicals and protect cells from injuries. In this test, the SOD activity was determined using WST-1 assay.
(§1) After disinfecting the neonatal mice (within 3 days after birth) by alcohol, the skin and sternum of the left chest were cut off at one time using a scissor. The heart was then squeezed out, taken and put into a pre-cooled FBS-free DMEM culture medium with a curved forceps. The blood vessels on the surface of heart, the residual blood and the attached lung tissue were removed. The heart tissue was cut into pieces with homogeneous size. The heart pieces were drawn into a 15 ml centrifuge tube, and the supernatant was discarded. The tissue was rinsed by PBS for 2-3 times. The trypsinization solution was added at equivalent volume of the heart tissue. The centrifuge tube was kept shaken to accelerate digestion. After the solution become turbid, the digestion was stopped by transferring the solution to DMEM culture medium. After the digestion of all heart tissues was completed, the digest was filtered by a sieve, and centrifuged at 1500 rpm for 5 min. […]
(§2) After digestion, the primary cardiac cells from neonatal mice were re-suspended into a 6-well plate at a appropriate concentration with volume of 2 mL for each well. […] The activity of SOD and the content of ATP in the cells were determined according to the instruction provided in the SOD and ATP detection kit, respectively. […]
(§3) The experiment data were expressed as mean±standard error. The SOD and ATP content in the cells in each group were analyzed by One-way ANOVA, with P<0.05 indicating a significant difference. All experiment results were statistically analyzed and plotted using Graphpad Prism 8.0.

[3] = system: primary cardiac cells from neonatal mice after H2O2 treatment; assay: ATP in H2O2-injured primary cardiac cells (luciferase kit); type: cell-based
From the text: A kit has been used in this study, based on that ATP is demanded to provide energy during the fluorescence production by the fluorescein catalyzed by the firefly luciferase (also termed as luciferase). When both luciferase and fluorescein are excessive, in a certain concentration range, the fluorescence generated is proportional to the concentration of ATP. That is, the concentration of ATP in the solution can be detected sensitively.
as §1, §2, §3

[4] = system: myocardial infarcted mice; assay: Mouse model of myocardial infarction (ligation of the left anterior descending coronary artery), cardiac function by ultrasonography; type: in vivo, C57BL/6 male mice; details: 2 weeks
From the text: The mouse model of myocardial infarction was established by ligation of the left anterior descending branch of the coronary artery. The agent was then administrated to the mice to determine the effect of the test sample on myocardial ischemia, and the effect of the test sample on the cardiac functions of the myocardial infarct mice.
Random grouping: the C57BL/6 mice were randomly divided into 5 groups, namely the sham-operation group, the myocardial infarction group, the berberine group (berberine at a dosage of 40 mg/kg·d^−1), the test compound group (brominated 9-O-propyl berberine thiazole formate at a dosage of 40 mg/kg·d^−1) and the positive control group (sacubitril and valsartan sodium at a dosage of 26 mg/kg·d^−1).
The mouse model of myocardial ischemia was established by ligation of the left anterior descending branch of the coronary artery. Healthy male C57BL/6 mice (28±2 g) were anesthetized by intraperitoneal injection of aphrodin (0.2 g/kg). The anesthetic mice were placed in a supine position on the operation desk with the trachea connected to a ventilator by inserting a tracheal tube. An incision of about 0.5˜4.0 cm was made on the skin of the left chest from the upper left to the lower right. Pectoralis minor and serratus anterior were separated. The intercostal muscle was bluntly separated between the fourth and fifth rib, and the heart was slightly squeezed out.
Except for the sham-operation group, coronary artery ligation was performed to all other mice. The mice were randomly divided into 4 groups 24 hours after ligation, including the myocardial infarction group, the berberine group, the brominated 9-O-propyl berberine thiazole formate group and the positive control group. Blank solvent, berberine, brominated 9-O-propyl berberine thiazole formate and positive control sacubitril and valsartan sodium were administrated to the mice by gavage (as shown in Table 1) for consecutive 14 days. […]
The Experiment data were expressed as mean±standard error. […] All experiment results were statistically analyzed by Graphpad Prism 8.0.

[5] = vs. the model group, among 1, 2.5 and 5 μM, H2O2 100 μM
[6] = 40 mg/kg gavage once per day, ##P<0.01

SMILES: COc1ccc2cc3[n+](cc2c1OCCCOC(=O)c1cscn1)CCc1cc2c(cc1-3)OCO2.[Br-] [9-(3-((thiazole-4-carbonyl)oxy)propoxy)-10-methoxy-5,6-dihydro-[1,3]dioxolo[4,5-g]isoquinolino[3,2-a]isoquinolin-7-ium bromide]
- inhibition at 1000 µM ([1]; Mus musculus, 1000 μM, CCK-8, OD450, read-out: cell inhibition rate): 41%
- toxicity on primary cardiac cells ([1]; concentration range tested 0.1-1000 μM): low toxicity
- SOD content vs. the model group ([2]; 1, 2.5 and 5 μM, H2O2 100 μM, 24 hours, #P<0.05, ###P<0.001): increased
- SOD effect compared with berberine ([2]; same concentration (5 μM), &P<0.05): apparently better than the effect of berberine at the same concentration
- highest enhancement of the SOD content [2, 5]: 43.4%
- ATP content vs. the model group ([3]; 1, 2.5 and 5 μM, H2O2 100 μM, 24 hours, ##P<0.01, ###P<0.001): increased
- ATP effect compared with berberine ([3]; same concentration (5 μM), &&P<0.01): apparently better than the effect of berberine at the same concentration
- highest enhancement of the ATP content [3, 5]: 59.1%
- ejection fraction (EF) vs. the myocardial infarction group [4, 6]: significantly increased
- fraction shortening (FS) vs. the myocardial infarction group [4, 6]: significantly increased
- effect on EF and FS compared with berberine ([4]; both 40 mg/kg gavage, &P<0.05 vs. the berberine group): better than that of the berberine
